Laboratory results: patent US10370364B1, “Substituted chromenes for treatment of fibrosis or non-alcoholic steatohepatitis” (OSTEONEUROGEN INC., priority 2018, dated 2019)
≈ marks a conversion by molar mass, not a printed value.

How the values were obtained:
[1] = Solubility in phosphate buffer (pH 7.4); details: phosphate buffer pH 7.4, 1 mg/ml added, 16 hours, HPLC-UV
Procedure: The compound of the present invention was added to phosphate buffer (pH 7.4) at a concentration of 1 mg/ml and stirred. After 16 hours, the sample was filtered through a filter, and the supernatant was analyzed by HPLC-UV, thereby determining the content of compound dissolved.

[2] = tested on: C57BL/6 mice; experiment: Bleomycin-induced pulmonary fibrosis animal model; type: in vivo
Excerpt: 5-week-old male C57BL/6 mice (weighed 18.2 to 20.5 g) (KOATECH, Korea) were used as experimental animals and divided into several groups, each consisting of 5 animals.
The experimental animals were housed in a housing box having a size of 369 L×156 W×132H (mm) (EU, USA, UK GL compliance) made of a polysulfone material in a SPF (Specific Pathogen Free) and BSL (Bio Safety Level) 2 grade facility. The number of animals in each housing box was 2 to 3 during the period of quarantine and acclimatization and was also 2 to 3 during the experimental period, and the housing conditions were set to a temperature of 22±2° C., a relative humidity of 50.0±15.0%, a ventilation cycle of 10 to 20 times/hr, a light-dark cycle (a photoperiod) of 12 hr/day (07:00 to 19:00), and an illumination intensity of 150 to 300 Lux.
Pulmonary fibrosis was induced by injecting a bleomycin solution directly into the lungs via the trachea according to the intratracheal instillation (IT) method of Kremer, Laxer and Berkman et al. Specifically, C57BL/6J mice were anesthetized through inhalation with 70% N2O and 30% O2 gas and 1.5% isoflurane, and the skin of the anterior neck thereof was excised and the organs under the muscle thereof were exposed and then carefully excised using ophthalmic surgical scissors. 50 μL of a solution of bleomycin in distilled water was injected directly into the lungs all at once via the excised organ by use of a 1 mL syringe fitted with a 19-gauge injection needle having a blunt tip. Immediately after the injection, the excised skin of the anterior neck was sutured and the mice were allowed to recover from the anesthetic, and then housed in a general housing cage. The administration of bleomycin was performed using a visual instillobot, and bleomycin-HCl 40 μg/50 μL was administered once and a pulmonary fibrosis induction period of 12 days was set.
The compound of the present invention was used after dissolution in 30% HPCD aqueous solution (Formulation Example 5), and the dose for each individual was calculated based on the recent body weight thereof. 12 Days after the administration of bleomycin, the compound of the present invention was administered once a day (5 times a week) for 2 weeks. As a control, pirfenidone which is a therapeutic agent for idiopathic pulmonary fibrosis was administered in the same manner.
On 15 days after administration of the compound, the mice were sacrificed, and then the right lung of each mouse was dissected and the weight thereof was measured. […] In particular, it is noted that the inhibitory effect of the compound in the group administered at 10 mpk was the highest compared to that in the group administered at 50 or 100 mpk and was also higher than that in the group administered with pirfenidone 100 mpk.
The amounts of hydroxyproline (HP) and collagen in the dissected right lung were measured using a known method.
Histopathology collagen morphometry of the dissected left lung tissue was performed using a known method (calculating the area of collagen in an optical image obtained by Sirius red staining of the lung tissue sample).
The pathological conditions of the left lung tissue dissected using a known method were examined by H&E and Sirius Red staining. […] In particular, it is noted that the inhibitory effect of the compound in the group administered at 10 mpk was the highest compared to that in the groups administered at other concentrations.
In order to examine the effect of each treatment in this Experiment on the liver, the liver of each of the sacrificed mice was dissected, and the pathological conditions of the liver tissue were examined by H&E staining.

[3] = Concentration of compound in plasma and lung of bleomycin fibrotic mice; type: in vivo; details: 1 hour after final administration; pirfenidone 100 mpk, Compound 1 10-100 mpk PO
Procedure: The amounts of the compound present in the plasma and lung of each of the sacrificed mice (finally administered with each compound at 1 hour before sacrifice) were measured. […] If it is attempted to formulate the compound of the present invention in various manners, it is expected that the compound of the present invention can effectively treat fibrosis even at lower concentrations.

[4] = tested on: STAM mice; experiment: Non-alcoholic steatohepatitis animal model (STAM mice), NAFLD activity score; type: in vivo; details: 30 mpk oral
Procedure: STAM mice (SMC Laboratories, Inc., Japan), which are non-alcoholic steatohepatitis animal models, were used as experimental animals. These animal models were administered with streptozotocin immediately after birth, and fed with high-fat-diet after 3 weeks. Then, in the mouse model, non-alcoholic steatohepatitis occurred at 6 to 9 weeks, and liver fibrosis, cirrhosis and liver cancer occurred within 9 to 12 weeks.
Over 6 to 9 weeks after administration of streptozotocin, the compound of the present invention, dissolved in a mixture solution of Tween80 and 0.5% CMC aqueous solution (1:99 (v/v)) (Formulation Example 2), was orally administered to the animal models once a day (five times a week). As controls, telmisartan and OCA (obeticholic acid) were administered in the same manner.
At […] after administration of streptozotocin (a time point after 3-week administration of the compound), the mice were sacrificed, the liver of each mouse was dissected, the invasion of inflammatory cells was observed by […] of the liver tissue, and fibrosis of the liver tissue was observed by Sirius Red staining (see FIG. 42). In addition, the degrees of inflammation, fibrosis, liver cell ballooning and adipose accumulation observed were measured, data integration was performed, and the NAFLD (nonalcoholic fatty liver disease) activity score was statistically processed by t-test.

## CC/C(=C(/CC)c1ccc(O)cc1)c1ccc(O)cc1 [Diethyl stilbesterol, reference compound]
[1]
  Solubility: 4.50 µg/mL (≈ 16.8 µM)

## Cc1ccc(=O)n(-c2ccccc2)c1 [Pirfenidone, reference compound]
[2]; 100 mpk PO
  Protection Collagen %: 34%
[2]; 100 mpk PO, Sirius red
  Mean Collagen % (histopathology collagen morphometry, left lung): 4.1%
[2]; bleomycin mice, 100 mpk
  pathological condition of liver tissue, H&E staining: showed hepatotoxic symptoms
[3]
  concentration of the compound in the lung: high
  concentration of the compound in the plasma: high

## CCCc1nc2c(C)cc(-c3nc4ccccc4n3C)cc2n1Cc1ccc(-c2ccccc2C(=O)O)cc1 [telmisartan, reference compound]
[4]
  NAFLD activity score (t-test): statistically significant anti-NASH effects
